{
  "source": "ChEMBL document CHEMBL5365456",
  "about": "“Isolation and biological activity of natural chalcones based on antibacterial mechanism classification” (Bioorg Med Chem, 2023)",
  "format_in_all_cases": "functional",
  "key": {"[1]": {"test_system": "Mycobacterium tuberculosis variant bovis", "experiment": "Antibacterial activity against Mycobacterium bovis BCG assessed bacterial growth inhibition by Alamar Blue cell viability assay"}, "[2]": {"test_system": "Mycobacterium tuberculosis variant bovis", "experiment": "Antibacterial activity against Mycobacterium bovis BCG transfected with pVV16 vector assessed bacterial growth inhibition by Alamar Blue cell viability assay"}, "[3]": {"test_system": "Mycobacterium tuberculosis variant bovis", "experiment": "Antibacterial activity against Mycobacterium bovis BCG transfected with pVV16 vector expressing Rv0636 assessed bacterial growth inhibition by Alamar Blue cell viability assay"}},
  "data": [
    {"compound": "O=C(/C=C/c1ccc(O)cc1)c1ccc(O)cc1O", "note": "[ISOLIQUIRITIGENIN]", "values": [
      {"measurement": "MIC99", "setting": "[1]", "value": 50, "unit": "µg/mL"},
      {"measurement": "MIC99", "setting": "[2]", "value": 50, "unit": "µg/mL"},
      {"measurement": "MIC99", "setting": "[3]", "value": 64, "unit": "µg/mL"}
    ]},
    {"compound": "O=C(/C=C/c1ccc(O)c(O)c1)c1ccc(O)cc1O", "note": "[BUTEIN]", "values": [
      {"measurement": "MIC99", "setting": "[1]", "value": 47, "unit": "µg/mL"},
      {"measurement": "MIC99", "setting": "[2]", "value": 43, "unit": "µg/mL"},
      {"measurement": "MIC99", "setting": "[3]", "value": 59, "unit": "µg/mL"}
    ]}
  ]
}
